# Test results reported in US8952176B2, “Heterocyclic compound having type I 11 β hydroxysteroid dehydrogenase inhibitory activity” (Shionogi & Co., Ltd., priority 2005, dated 2015).
# pIC50: −log10 of the molar value.
# Assays:
# [1] = biological target: recombinant human 11β-HSD1 (Homo sapiens, UniProt P28845); assay: Enzyme activity assay on human 11β-HSD1 (HTRF cortisol); type: biochemical; details: recombinant human 11β-HSD1, 5 μM cortisone, 2 hours at 37° C.
# Experimental: Evaluation of 11β-HSD1 Inhibitors (Enzyme Activity Assay on Human 11β-HSD1)
# Enzymatic activity for human 11β-HSD1 was determined in a 10 μl final volume of assay mixture containing 50 mM sodium phosphate buffer (pH 7.6), 1 mg/ml bovine serum albumin, 0.42 mg/ml NADPH, 1.26 mg/ml glucose-6-phosphate, glucose-6-phosphate dehydrogenase, test compound, recombinant human 11β-HSD1, and 5 μM cortisone as substrate. The reaction was started with the addition of cortisone. After incubation for 2 hours at 37° C., 5 μl of europium cryptate-labelled anti-cortisol antibody and 5 μl of XL665-labeled cortisol were added. After further incubation for 2 hours at room temperature, the homogeneous time-resolved fluorescence (HTRF) signal was measured. The cortisol production was quantitated by a standard curve generated with several known concentrations of cortisol in each assay.
# (§1) The amount of cortisol production without compounds was served as control, and the percent inhibition by test compound at each concentration was calculated. The IC50 value of the compound for 11β-HSD1 was obtained using the inhibition curve generated by plotting the percent inhibition versus the concentration of text compound.
# [2] = biological target: recombinant mouse 11β-HSD1 (Mus musculus, UniProt P50172); assay: Enzyme activity assay on mouse 11β-HSD1 (HTRF corticosterone); type: biochemical; details: recombinant mouse 11β-HSD1, 11-dehydrocorticosterone substrate, 2 hours at 37° C.
# Sequence of recombinant mouse 11β-HSD1 (P50172 whole entry): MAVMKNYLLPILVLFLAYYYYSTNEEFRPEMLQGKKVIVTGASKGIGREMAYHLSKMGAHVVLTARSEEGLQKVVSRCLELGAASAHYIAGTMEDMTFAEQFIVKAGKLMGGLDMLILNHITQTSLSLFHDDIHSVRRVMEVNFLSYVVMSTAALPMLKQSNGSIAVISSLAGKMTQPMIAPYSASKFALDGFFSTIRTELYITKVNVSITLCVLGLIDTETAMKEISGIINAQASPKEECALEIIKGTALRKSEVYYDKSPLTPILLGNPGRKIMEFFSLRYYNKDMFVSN
# Experimental: […] (Enzyme Activity Assay on Mouse 11β-HSD1)
# Enzymatic activity for mouse 11β-HSD1 activity was determined in a 10 μl final volume of assay mixture containing 50 mM sodium phosphate buffer (pH 7.6), 1 mg/ml bovine serum albumin, 0.042 mg/ml NADPH, 1.26 mg/ml glucose-6-phosphate, glucose-6-phosphate dehydrogenase, test compound, recombinant mouse 11β-HSD1, and […] 11-dehydrocorticosterone as substrate. The reaction was started with the addition of 11-dehydrocorticosterone. After incubation for 2 hours at 37° C., 5 μl of europium cryptate-labelled anti-cortisol antibody and 5 μl of XL665-labeled cortisol were added. After further incubation for 2 hours at room temperature, the HTFR signal was measured. The corticosterone production was quantitated by a standard curve generated with several known concentrations of corticosterone in each assay.
# as §1, with “Corticosterone” for “The amount of cortisol”, “by” for “by test”, “test” for “text”
# Sequence of recombinant human 11β-HSD1 (P28845 whole entry): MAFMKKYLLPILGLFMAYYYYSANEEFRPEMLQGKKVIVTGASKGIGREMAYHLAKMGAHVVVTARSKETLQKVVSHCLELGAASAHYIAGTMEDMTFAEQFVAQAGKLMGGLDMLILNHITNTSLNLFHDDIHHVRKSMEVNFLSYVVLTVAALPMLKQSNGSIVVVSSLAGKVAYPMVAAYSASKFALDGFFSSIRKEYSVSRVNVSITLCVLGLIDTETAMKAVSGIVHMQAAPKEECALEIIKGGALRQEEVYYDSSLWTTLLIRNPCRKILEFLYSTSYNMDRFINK
Compound,pIC50 [1],pIC50 [2]
Cc1noc(C(=O)c2ccccc2)c1SC1CCCCC1 [Compound A-15],7.80,4.94
Cc1noc(C(=O)NC23CC4CC(CC(C4)C2)C3)c1SC1CCCCCC1 [Compound A-21],7.82,4.68
Cc1noc(C(=O)NC23CC4CC(CC(C4)C2)C3)c1Sc1ccccc1 [Compound A-1],7.08,4.68
COc1noc(C(=O)c2ccccc2)c1S(=O)(=O)c1ccccc1 [Compound A-20],7.03,5.23
Cc1noc(C(=O)NC23CC4CC(CC(C4)C2)C3)c1SC1CCCCC1 [Compound A-12],7.10,5.22
